Read-outs that look alike come from different tables or passages of the source.

The source of these data is patent US10155751B2, “Pyrazolyl-substituted heteroaryls and their use as medicaments” (Boehringer Ingelheim International GmbH, priority 2015, dated 2018).

For test [1], the target named is Recombinant human SYK (amino acids 342-635), GST-SYK kinase fusion protein (Homo sapiens (Human), UniProt P43405). The test is described as follows: SYK kinase inhibition test (Kinase Glo luminescence). In kind it is biochemical. The procedure:
The catalytic activity of the GST-SYK kinase fusion protein was determined using the Kinase Glo® Luminescence Kinase test (Promega; V6712). In this homogeneous test the amount of ATP remaining after the kinase reaction is quantified by a luciferin-luciferase reaction using luminescence. The luminescence signal obtained correlates with the amount of ATP still present and thus correlates inversely with the activity of the kinase.
The test compounds were dissolved in 100% DMSO at a concentration of 10 mM and diluted in DMSO to a concentration of 1 mM. Serial Dilution is done in 100% DMSO. All further dilutions of the substances were carried out with test buffer (25 mM HEPES pH7.5; 25 mM MgCl2; 5 mM MnCl2; 50 mM KCl; 0.2% HSA; 0.01% CHAPS; 100 μM Na3VO4; 0.5 mM DTT). Dilution steps and concentration range were adapted according to need. 7 μl aliquots of these dilutions were transferred into a 384-well Optiplate (Perkin Elmer, #6007290). GST-SYK was diluted to 12 nM in the test buffer and 5 μl of this dilution were used in the kinase test (final concentration of SYK=4 nM in a total volume of 15 μl). After 15 minutes incubation at room temperature 3 μl of a mixture of 750 nM ATP and 100 μg/ml poly (L-Glutamic acid L-Tyrosine 4:1), Fluka #81357) in test buffer were added to each well and the incubation was continued for a further 60 minutes at room temperature.
(§1) Positive controls are the reaction mixtures that contain no test substance; negative controls (blanks) are reaction mixtures that contain no kinase.
After 60 minutes, 10 μl Kinase-Glo® solution (Promega, Cat. # V6712) (heated to room temperature) were added to each well and incubation was continued for a further 15 minutes. The plates were read in Envision Luminescence Reader (Perkin-Elmer).
(§2) The output file of the reader is a csv file that contains the well number and measured relative light units (RLU). For data evaluation and calculation, the measurement of the negative control was set as 100% ctrl and the measurement of the positive control was set as 0% ctrl. Based on this values the % value for the measurement of each substance concentration was calculated using an Assay Explorer software (Accelrys). Normally, the % ctrl values calculated are between 0% and 100% values but may also occur outside these limits in individual cases based on variability or compound characteristics. The IC50-values were calculated from the % ctrl values using Assay Explorer software. Calculation: [y=(a−d)/(1+(x/c)^b)+d] a=low value, d=high value; x=conc M; c=IC50 M; b=hill; y=% ctrl.
Satisfying SYK inhibitory capacities are represented by an IC50(SYK)-Value measured by this assay of <10 nMol.

For test [2], the target named is Recombinant human Aurora B (amino acids 1-344) (Homo sapiens (Human), UniProt Q96GD4). The test is described as follows: Aurora B kinase test (ADP Glo). In kind it is biochemical. The procedure:
The activity of the Aurora B kinase protein was determined using the ADP Glo® Luminescence Kinase test (Promega; V9103X). In this homogeneous test the amount of ADP remaining after the kinase reaction is quantified by a luciferin-luciferase reaction using luminescence. The luminescence signal obtained correlates with the amount of ADP still present and thus correlates with the activity of the protein kinase.
The test compounds were dissolved in 100% DMSO at a concentration of 10 mM and diluted in DMSO to a concentration of 5 mM. Serial Dilution is done in 1:10 steps in 100% DMSO. All further dilutions of the substances were carried out with test buffer (50 mM Hepes, pH 7.5, 10 mM MgCl2, 1 mM EGTA, 60 μM Ultra Pure ATP, 0.01% Brij35, 0.1% BSA, 5 mM 8-Glycerophosphate) until a concentration was reached which was 2.5 times above the final test concentration (final concentration of the compounds: 50 μM to 0.005 nM). 4 μl aliquots of these dilutions were transferred into a 384-well Optiplate (Perkin Elmer, #6007290). His-Aurora B was diluted to 125 nM in the test buffer and 4 μl of this dilution were used in the kinase test (final concentration of Aurora B=50 nM in a total volume of 10 μl). After 15 minutes incubation at room temperature 2 μl of 250 μM substrate ([[…]]; University of Dundee) in test buffer were added to each well and the incubation was continued for a further 60 minutes at room temperature.
as §1
After 60 minutes, 10 μl ADP-Glo® solution (ADP-Glo Reagent #V912B Promega) (heated to room temperature) were added to each well and incubation was continued for a further 40. minutes. Then 20 μl Kinase detection mix (Detection Buffer #V913B Promega; Kinase Detection Substrate #V914B Promega) were added and incubated for 40 minutes at room temperature. The plates were read in Envision Luminescence Reader (Perkin-Elmer).
as §2, with “measured RLU.” for “measured relative light units (RLU).”, “as 0%” for “as 100%”, “as 100%” for “as 0%”, “concentration can be” for “concentration was”, “software (e.g. Accelrys).” for “software (Accelrys).”, “Calculation: [y=(a−d)/(1+(x/c)^b)+d],” for “Calculation: [y=(a−d)/(1+(x/c)^b)+d]”
(ADP-Glo turns the ADP formed in a reaction into a luminescent signal.)

Where [3] appears, read: read-out: SYK inhibition IC50-value (chapter 5.1).
The mark [4] stands for this setting: read-out: AURB inhibition IC50-value (chapter 5.3).
[5] abbreviates: read-out: IC50(SYK) in SYK-inhibition assay.

Recombinant human Aurora B (amino acids 1-344), sequence (Q96GD4 whole entry, the tested form may be a part): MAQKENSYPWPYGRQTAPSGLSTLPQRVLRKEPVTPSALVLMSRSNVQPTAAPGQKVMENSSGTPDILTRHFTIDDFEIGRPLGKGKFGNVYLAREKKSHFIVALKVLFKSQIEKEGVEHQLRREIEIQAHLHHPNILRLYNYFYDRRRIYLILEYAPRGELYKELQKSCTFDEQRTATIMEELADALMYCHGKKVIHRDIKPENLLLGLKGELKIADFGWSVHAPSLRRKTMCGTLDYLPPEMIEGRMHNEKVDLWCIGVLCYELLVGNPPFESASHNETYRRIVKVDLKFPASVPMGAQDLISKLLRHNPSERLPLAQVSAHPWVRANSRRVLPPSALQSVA

One may read the IC50 as the concentration that inhibits the measured activity by half. For `Cc1c2c(O[C@H](C)[C@H]3CNC(=O)C3)cc(-c3cnn(CC4CC4)c3)cc2nn1C` [Example 8, (R)-4-{(R)-1-[6-(1-Cyclopropylmethyl-1H-pyrazol-4-yl)-2,3-dimethyl-2H-indazol-4-yloxy]-ethyl}-pyrrolidin-2-one], the concentration for half-maximal inhibition (IC50) in test [1] (setting [3]) is 1.4 nM; in test [2] (setting [4]), 21.1 µM. The “selectivity ratio IC50(AURB)/IC50(SYK)” value in test [2] is recorded as 15080.

As to `C[C@@H](Oc1nc(-c2cnn(C(C)(C)C)c2)cc2ncn(C)c12)[C@H]1CNC(=O)C1` [example 3A.02, on page 196 of WO15017610, reference compound], the IC50 was below 10 nM in test [1] (setting [5]), 1.9 nM in test [1] (setting [3]), 1.69 µM in test [2] (setting [4]) and 1.69 µM in test [2] (read-out: IC50(AURB)). Further, in test [2], the “selectivity ratio IC50(AURB)/IC50(SYK)” value was 891.

Turning to `Cc1c2c(O[C@H](C)[C@H]3CNC(=O)C3)cc(-c3cnn(C4CCC4)c3)cc2nn1C` [Example 21, (R)-4-{(R)-1-[6-(1-Cyclobutyl-1H-pyrazol-4-yl)-2,3-dimethyl-2H-indazol-4-yloxy]-ethyl}-pyrrolidin-2-one], the IC50 is 1.2 nM in test [1] (setting [3]) and 17.3 µM in test [2] (setting [4]). In addition, the “selectivity ratio IC50(AURB)/IC50(SYK)” value in test [2] is listed as 14442.

On to `Cc1c2c(O[C@H](C)[C@H]3CNC(=O)C3)cc(-c3cnn(CC(C)C)c3)cc2nn1C` [Example 19, (R)-4-{(R)-1-[6-(1-Isobutyl-1H-pyrazol-4-yl)-2,3-dimethyl-2H-indazol-4-yloxy]-ethyl}-pyrrolidin-2-one], for which the values for the IC50 in test [1] (setting [3]) and in test [2] (setting [4]) were 1.8 nM and 23.8 µM, respectively. Further, the “selectivity ratio IC50(AURB)/IC50(SYK)” value in test [2] is given as 13212.

With `C[C@@H](Oc1cc(-c2cnn(C3CC(C)(C)OC3(C)C)c2)cc2nn(C)c(F)c12)[C@H]1CNC(=O)C1` (stereo partly drawn) [Example 14, (R)-4-((R)-1-{3-Fluoro-2-methyl-6-[1-(2,2,5,5-tetramethyl-tetrahydro-furan-3-yl)-1H-pyrazol-4-yl]-2H-indazol-4-yloxy}-ethyl)-pyrrolidin-2-one], the half-maximal inhibitory concentration (IC50) in test [1] (setting [3]) was found to be 3.2 nM; in test [2] (setting [4]), 50 µM. Also, in test [2], the “selectivity ratio IC50(AURB)/IC50(SYK)” value was determined as 15625.

Turning to `C[C@@H](Oc1cc(-c2cnn(C(C)(C)C)c2)cc2ncn(C)c12)[C@H]1CNC(=O)C1` [example 3B.22 on page 219 of WO15017610, reference compound], the IC50 in test [1] (setting [5]) is below 10 nM; in test [1] (setting [3]), 0.8 nM; in test [2] (setting [4]), 0.771 µM; in test [2] (read-out: IC50(AURB)), 0.771 µM. The “selectivity ratio IC50(AURB)/IC50(SYK)” value in test [2] was 964.

Regarding `Cc1cnn2cc(-c3cnn(C(C)(C)C)c3)nc(O[C@H](C)[C@H]3CNC(=O)C3)c12` [example 5.20 on page 506 of WO15017610, reference compound], the IC50 in test [1] (setting [5]) was below 10 nM; in test [1] (setting [3]), 0.2 nM; in test [2] (setting [4]), 0.162 µM; in test [2] (read-out: IC50(AURB)), 0.162 µM. Besides, the “selectivity ratio IC50(AURB)/IC50(SYK)” value in test [2] amounted to 810.

Turning to `Cc1c2c(O[C@H](C)[C@H]3CNC(=O)C3)cc(-c3cnn(CCF)c3)cc2nn1C` [Example 11, (R)-4-((R)-1-{6-[1-(2-Fluoro-ethyl)-1H-pyrazol-4-yl]-2,3-dimethyl-2H-indazol-4-yloxy}-ethyl)-pyrrolidin-2-one], the IC50 was determined as 1.5 nM in test [1] (setting [3]) and 31.2 µM in test [2] (setting [4]). Moreover, the “selectivity ratio IC50(AURB)/IC50(SYK)” value in test [2] is listed as 20800.

For the compound `C[C@@H](Oc1cc(-c2cnn(CCC(F)(F)F)c2)cc2nn(C)c(F)c12)[C@H]1CNC(=O)C1` [Example 12, (R)-4-((R)-1-{3-Fluoro-2-methyl-6-[1-(3,3,3-trifluoro-propyl)-1H-pyrazol-4-yl]-2H-indazol-4-yloxy}-ethyl)-pyrrolidin-2-one], the IC50 in test [1] (setting [3]) worked out at 2.9 nM; in test [2] (setting [4]), 29.6 µM. Besides, the “selectivity ratio IC50(AURB)/IC50(SYK)” value in test [2] was 10207.

As for `Cc1c2c(O[C@H](C)[C@H]3CNC(=O)O3)nc(-c3cnn(C(C)(C)C)c3)cc2nn1C` [Example 3, (R)-5-{(R)-1-[6-(1-tert-Butyl-1H-pyrazol-4-yl)-2,3-dimethyl-2H-pyrazolo[4,3-c]pyridin-4-yloxy]-ethyl}-oxazolidin-2-one], the IC50 in test [1] (setting [3]) stood at 2 nM; in test [2] (setting [4]), 31.5 µM. In addition, the “selectivity ratio IC50(AURB)/IC50(SYK)” value in test [2] worked out at 15731.

For the compound `C[C@@H](Oc1cc(-c2cnn(C3CC3)c2)cc2nn(C)c(F)c12)[C@H]1CNC(=O)C1` [Example 5, (R)-4-{(R)-1-[6-(1-Cycloprop-yl-1H-pyrazol-4-yl)-3-fluoro-2-methyl-2H-indazol-4-yloxy]-ethyl}-pyrrolidin-2-one], the figures for the IC50 in test [1] (setting [3]) and in test [2] (setting [4]) were 3.3 nM and 50 µM, respectively. The “selectivity ratio IC50(AURB)/IC50(SYK)” value in test [2] was determined as 15152.
